Test results: patent US20260022122A1 (Checkmate Therapeutics Inc., priority 2022, published 2026)

Assays:
NamPT = NamPT (Homo sapiens (Human), UniProt P43490); test: Measurement of NamPT inhibitory ability IC50 (NamPT colorimetric assay kit, Abcam ab221819); type: biochemical; settings: NamPT recombinant protein, WST-1 absorbance at 450 nm; class key in μM
Description: To test the effect of the compound prepared in each Example on the substrate decomposition rate (Vmax/min) mediated by NamPT enzyme, IC50 was calculated. In this experiment, the NamPT colorimetric assay kit (ab221819) produced by Abcam was used, and Graph prism software was used for IC50 calculation. PRPP, ATP, NMNAT1, NamPT recombinant proteins, and various concentrations of the compound of each Example (half-log step dilution from 100 μM) were added to nicotinamide to synthesize nicotinamide adenine dinucleotide (NAD) from the nicotinamide, and a total of 60 μL of the reaction solution was reacted at room temperature for 1 hour. WST-1 formazan converted by NAD generated by adding WST-1 was measured. The result of the reaction was obtained by the following formula by measuring absorbance using EnVision2105 (PerkinElmer) at 450 nm for 60 minutes at 2-minute intervals.
In Mathematical Formula 1, T1 and T2 are arbitrary times, and A1 and A2 represent the absorbance measured at T1 and T2 at 450 nm, respectively.
The results of measuring the NamPT inhibition activity of the compound of each Example obtained through the above experiment are shown in Table 1 in the unit of IC50 (nM), and the result values are expressed as follows.

[1] = tested on: NAPRT negative lung cancer cell lines (H322, H661, H1155); test: Proliferation inhibition on NAPRT negative lung cancer cell lines (CellTiter-Glo); type: cell-based; settings: 72 hours
Description: (§1) A compound showing a low IC50 value was selected from the compounds of the above Examples and treated an NAPRT positive or negative lung cancer cell line with various concentrations, and then the change in cell viability for each cell line was measured. The results are presented in a graph (a few materials known as NamPT inhibitors were used as controls). A total of 9 cancer cells lines (three NAPRT negative cell lines: H322, H661, and H1155; and six NAPRT positive cell lines: H1993, H2122, H2030, H1975, H1299, and HBEC30) were used. 5% fetal bovine serum (Gibco, US) and 1% penicillin/streptomycin (Gibco) were added to a medium, and the cells were cultured in a 37° C. constant temperature incubator containing 5% CO2. For compound treatment, each type of cells were seeded at 3×10^3 cells/well in a 96-well plate (Corning) and then incubated in a 37° C. constant temperature incubator containing 5% CO2 for 18 hours. […] Afterwards, the cells were cultured in an incubator containing 5% CO2 at 37° C. for 72 hours. To confirm the effect of inhibiting the proliferation of cancer cells, a CellTiter-Glo Luminescent Cell Viability Assay (Promega) was used. After treating the cells with 10 μL of CellTiter-Glo luciferase reagent and leaving them for 15 minutes at room temperature, the luminescence of each well was measured using EnVision2105 (PerkinElmer). The change in cell viability by the compound diluted at the concentration of each step was converted into a relative % value for the amount of luminescence shown by DMSO treatment. EC50 is expressed as the concentration of each compound that induces 50% of the maximum luminescence level.
(§2) The results of measuring the proliferation inhibition ability of the compound of each Example on nine types of lung cancer cell lines, obtained through the above experiment, are shown in Table 2 in the unit of EC50 (μM). The resulting values are expressed as follows.

[2] = tested on: NAPRT positive cell lines (H1993, H2122, H2030, H1975, H1299, HBEC30); test: Proliferation inhibition on NAPRT positive lung cancer cell lines (CellTiter-Glo); type: cell-based; settings: 72 hours
Description: as §1, §2

[3] = tested on: NAPRT-negative gastric cancer cell line HGC27; test: NAPRT-negative cancer cell xenograft model (% tumor growth inhibition); type: in vivo; settings: 50 mg/kg, orally once a day from day 1 to day 21, HGC27 xenograft in BALB/c nude mice
Source text: Based on the effect of inhibiting proliferation limited to NAPRT-negative cancer cell lines according to the experiment of the proliferation inhibitory effect (EC50) on NAPRT-negative cancer cell lines, the pharmacological effect in a xenograft model using NAPRT-negative cancer cell lines was verified. Five-week-old female BALB/c nude mice were purchased and used in the experiment after acclimation for one week. The cancer cells used in the experiment were a NAPRT-negative gastric cancer cell line HGC27, and cultured in […] medium (Gibco) to which 5% Fetal Bovine Serum (Gibco, US) and 1% penicillin/streptomycin (Gibco) were added. HGC27 was suspended in PBS (Welgene) and transplanted to have 5×10^6 cells into each mouse. After adding Matrigel in the same value, tumors were induced by subcutaneous injection into the right flank using a 1 mL syringe. After 3 weeks of breeding, when the average tumor size was 100 to 150 mm^3, mice were randomly divided into groups of 7 and administered each compound. The compound was prepared in an excipient (0.5% DMSO/2% Tween 80/20% PEG 400/20% b-HPCD in 77.5% DW) as an agent for oral administration, and administered orally once a day from day 1 to day 21 to the mouse model in which a tumor was generated. From day 1 to day 21, the body weight was measured once daily, and the tumor size was measured three times a week. The tumor size was measured using a caliper and calculated using the following formula.
In Mathematical Formula 2, W is a length, and d is a width.
On day 21, all animals were euthanized, blood samples were collected, and tumors were removed. To evaluate blood toxicity, blood was collected from an EDTA-containing blood collection tube, and subjected to a general blood test (complete blood count, CBC) and a blood biochemical test. Isolated tumors were weighed after photographing and a portion was used to measure NAD to verify the on-target efficacy of the compound. To measure NAD, a NAD/NADH Quantitation Colorimetric Kit (K337) produced by BioVision was used.
The pharmacological effect of each compound in the NAPRT-negative cancer cell xenograft models, obtained in this experiment, is shown in Table 3 in the unit of % TGI (tumor growth inhibition).

Sequence of NamPT (P43490 whole entry): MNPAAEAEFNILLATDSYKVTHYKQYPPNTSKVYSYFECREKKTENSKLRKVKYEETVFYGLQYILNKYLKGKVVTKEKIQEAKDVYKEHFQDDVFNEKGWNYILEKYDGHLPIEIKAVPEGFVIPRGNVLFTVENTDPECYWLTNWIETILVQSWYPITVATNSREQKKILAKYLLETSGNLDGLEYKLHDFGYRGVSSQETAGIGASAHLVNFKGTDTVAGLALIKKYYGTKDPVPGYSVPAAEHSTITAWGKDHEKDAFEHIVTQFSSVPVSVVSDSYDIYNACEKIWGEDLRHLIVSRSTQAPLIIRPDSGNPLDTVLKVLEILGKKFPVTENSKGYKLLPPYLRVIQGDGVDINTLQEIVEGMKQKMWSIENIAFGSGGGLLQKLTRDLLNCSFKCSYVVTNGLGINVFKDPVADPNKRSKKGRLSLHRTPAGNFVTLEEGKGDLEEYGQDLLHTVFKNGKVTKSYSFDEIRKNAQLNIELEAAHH

Row | IC50 (NamPT) [µM] | EC50 [1] [µM] | EC50 [2] [µM] | Structure (SMILES) | % TGI (Tumor Growth inhibition) [3] [%]
1 | < 0.05 | < 0.05 | > 101 | O=C(NCc1ccc(-c2nc3ccc(Cl)cc3o2)cc1)c1cnc2nccn2c1 [Example 4, N-[[4-(6-chloro-1,3-benzoxazol-2-yl)phenyl]methyl]imidazo[1,2-a]pyrimidin-6-carboxamide] | 80
2 |  | < 0.05 | > 101 | CC(C)c1ccc2nc(-c3ccc(CNC(=O)c4cnc5nccn5c4)cc3)oc2c1 [Example 3] | 
3 | < 0.05 | < 0.05 | > 101 | O=C(NCc1ccc(-c2nc3cc(C(=O)N4CCC4)ccc3o2)cc1)c1cnc2nccn2c1 [Example 33, N-[[4-[5-(azetidin-1-carbonyl)-1,3-benzoxazol-2-yl]phenyl]methyl]imidazo[1,2-a]pyrimidin-6-carboxamide] | 
4 | < 0.05 | < 0.05 | 10 to 100 | O=C(NCc1ccc(-c2nc3cc(C(=O)N4CCCC4)ccc3o2)cc1)c1cnc2nccn2c1 [Example 34, N-[[4-[5-(pyrrolidine-1-carbonyl)-1,3-benzoxazol-2-yl]phenyl]methyl]imidazo[1,2-a]pyrimidin-6-carboxamide] | 
5 | < 0.05 | < 0.05 | > 101 | CCNC(=O)c1ccc2oc(-c3ccc(CNC(=O)c4cnc5nccn5c4)cc3)nc2c1 [Example 31, N-ethyl-2-[4-[(imidazo[1,2-a]pyrimidin-6-carbonxylamino)methyl]phenyl]-1,3-benzoxazol-5-carboxamide] | 
6 | 0.051 to 0.1 | < 0.05 | > 101 | O=C(NCc1ccc(-c2nc3ccccc3o2)cc1)c1cnc2nccn2c1 [Example 2, N-[[4-(1,3-benzoxazol-2-yl)phenyl]methyl]imidazo[1,2-a]pyrimidin-6-carboxamide] | 
7 | < 0.05 | < 0.05 | > 101 | Cc1ccc2oc(-c3ccc(CNC(=O)c4cnc5nccn5c4)cc3)nc2c1 [Example 6, N-[[4-(5-methyl-1,3-benzoxazol-2-yl)phenyl]methyl]imidazo[1,2-a]pyrimidin-6-carboxamide] | 
8 | < 0.05 |  |  | Cc1cc2nc(-c3ccc(CNC(=O)c4cnc5nccn5c4)cc3)oc2cc1F [Example 11, N-[[4-(6-fluoro-5-methyl-1,3-benzoxazol-2-yl)phenyl]methyl]imidazo[1,2-a]pyrimidin-6-carboxamide] | 82
9 | < 0.05 | 0.051 to 0.1 | > 101 | O=C(NCc1ccc(-c2nc3cc(S(=O)(=O)c4ccccc4)ccc3o2)cc1)c1cnc2nccn2c1 [Example 38, N-[[4-[5-(benzenesulfonyl)-1,3-benzoxazol-2-yl]phenyl]methy]imidazo[1,2-a]pyrimidin-6-carboxamide] | 
10 | < 0.05 | < 0.05 | > 101 | CS(=O)(=O)c1ccc2oc(-c3ccc(CNC(=O)c4cnc5nccn5c4)cc3)nc2c1 [Example 9, N-[[4-(5-methylsulfonyl-1,3-benzoxazol-2-yl)phenyl]methyl]imidazo[1,2-a]pyrimidin-6-carboxamide] | 
11 | < 0.05 | 0.051 to 0.1 | > 101 | O=C(NCc1ccc(-c2nc3ccc(C(F)(F)F)cc3o2)cc1)c1cnc2nccn2c1 [Example 19, N-[[4-[6-(trifluoromethyl)-1,3-benzoxazol-2-yl]phenyl]methyl]imidazo[1,2-a]pyrimidin-6-carboxamide] | 
12 | < 0.05 | 0.051 to 0.1 | > 101 | COc1ccc2nc(-c3ccc(CNC(=O)c4cnc5nccn5c4)cc3)oc2c1 [Example 22, N-[[4-(6-methoxy-1,3-benzoxazol-2-yl)phenyl]methyl]imidazo[1,2-a]pyrimidin-6-carboxamide] | 
13 | 0.11 to 1 |  |  | CCC(=O)Nc1ccc2oc(-c3ccc(CNC(=O)c4cnc5nccn5c4)cc3)nc2c1 [Example 15, N-[[4-[5-(propanoylamino)-1,3-benzoxazol-2-yl]phenyl]methyl]imidazo[1,2-a]pyrimidin-6-carboxamide] | 
14 | 0.051 to 0.1 | 0.051 to 0.1 | > 101 | O=C(NCc1ccc(-c2nc3ccc(F)cc3o2)cc1)c1cnc2nccn2c1 [Example 17, N-[[4-(6-fluoro-1,3-benzoxazol-2-yl)phenyl]methyl]imidazo[1,2-a]pyrimidin-6-carboxamide] | 
15 | < 0.05 |  |  | COc1ccc2nc(-c3ccc(CNC(=O)c4cnc5nccn5c4)cc3)sc2c1 [Example 52, N-[[4-(6-methoxy-1,3-benzothiazol-2-yl)phenyl]methyl]imidazo[1,2-a]pyrimidin-6-carboxamide] | 
16 | < 0.05 | < 0.05 | 10 to 100 | CN(C)C(=O)c1ccc2oc(-c3ccc(CNC(=O)c4cnc5nccn5c4)cc3)nc2c1 [Example 32, 2-[4-[(imidazo[1,2-a]pyrimidin-6-carbonylamino)methyl]phenyl]-N,N-dimethyl-1,3-benzoxazol-5-carboxamide] | 
17 | < 0.05 |  |  | Cc1ccc2nc(-c3ccc(CNC(=O)c4cnc5nccn5c4)cc3)oc2n1 [Example 24, N-[[4-(5-methyloxazolo[5,4-b]pyridin-2-yl)phenyl]methyl]imidazo[1,2-a]pyrimidin-6-carboxamide] | 
18 | 0.11 to 1 |  |  | O=C(NCc1ccc(-c2nc3cc(F)ccc3o2)cc1)c1cnc2nccn2c1 [Example 18, N-[[4-(5-fluoro-1,3-benzoxazol-2-yl)phenyl]methyl]imidazo[1,2-a]pyrimidin-6-carboxamide] | 
19 | < 0.05 |  |  | COc1cc2nc(-c3ccc(CNC(=O)c4cnc5nccn5c4)cc3)oc2cc1C [Example 43, N-[[4-(5-methoxy-6-methyl-1,3-benzoxazol-2-yl)phenyl]methyl]imidazo[1,2-a]pyrimidin-6-carboxamide] | 
20 | 0.051 to 0.1 |  |  | O=C(NCc1ccc(-c2nc3cc(-c4cccnc4)ccc3o2)cc1)c1cnc2nccn2c1 [Example 27, N-[[4-[5-(3-pyridyl)-1,3-benzoxazol-2-yl]phenyl]methyl]imidazo[1,2-a]pyrimidin-6-carboxamide] | 
21 | < 0.05 |  |  | O=C(NCc1ccc(-c2nc3cc(Oc4ccccn4)ccc3o2)cc1)c1cnc2nccn2c1 [Example 25, N-[[4-[5-(2-pyridyloxy)-1,3-benzoxazol-2-yl]phenyl]methyl]imidazo[1,2-a]pyrimidin-6-carboxamide] | 
22 | < 0.05 |  |  | CCOC(=O)c1ccc2oc(-c3ccc(CNC(=O)c4cnc5nccn5c4)cc3)nc2c1 [Example 29, ethyl 2-[4-[(imidazo[1,2-a]pyrimidin-6-carbonylamino)methyl]phenyl]-1,3-benzoxazol-5-carboxylate] | 
